{
  "source": "patent US9469650B2",
  "about": "“Melampomagnolide B derivatives” (BOARD OF TRUSTEES OF THE UNIVERSITY OF ARKANSAS, priority 2013, dated 2016)",
  "key": {"CCRF-CEM": {"system": "CCRF-CEM", "test": "panel of 60 human tumor cell lines, growth inhibition (Leukemia)", "settings": "Homo sapiens"}, "SK-MEL-28": {"system": "SK-MEL-28", "test": "panel of 60 human tumor cell lines, growth inhibition (Melanoma)", "settings": "Homo sapiens"}, "UACC-62": {"system": "UACC-62", "test": "panel of 60 human tumor cell lines, growth inhibition (Melanoma)", "settings": "Homo sapiens"}, "SNB-19": {"system": "SNB-19", "test": "panel of 60 human tumor cell lines, growth inhibition (CNS Cancer)", "settings": "Homo sapiens"}, "SNB-75": {"system": "SNB-75", "test": "panel of 60 human tumor cell lines, growth inhibition (CNS Cancer)", "settings": "Homo sapiens"}, "HCC-2998": {"system": "HCC-2998", "test": "panel of 60 human tumor cell lines, growth inhibition (Colon Cancer)", "settings": "Homo sapiens"}, "HCT-116": {"system": "HCT-116", "test": "panel of 60 human tumor cell lines, growth inhibition (Colon Cancer)", "settings": "Homo sapiens; for GI50: HCT-116, HCT-116"}, "KM12": {"system": "KM12", "test": "panel of 60 human tumor cell lines, growth inhibition (Colon Cancer)"}, "786-0": {"system": "786-0", "test": "panel of 60 human tumor cell lines, growth inhibition (Renal Cancer)", "settings": "Homo sapiens"}, "A498": {"system": "A498", "test": "panel of 60 human tumor cell lines, growth inhibition (Renal Cancer)", "settings": "Homo sapiens"}, "RXF 393": {"system": "RXF 393", "test": "panel of 60 human tumor cell lines, growth inhibition (Renal Cancer)", "settings": "Homo sapiens; for GI50: RXF 393, RXF 393"}, "UO-31": {"system": "UO-31", "test": "panel of 60 human tumor cell lines, growth inhibition (Renal Cancer)", "settings": "Homo sapiens"}, "T-47D": {"system": "T-47D", "test": "panel of 60 human tumor cell lines, growth inhibition (Breast Cancer)", "settings": "Homo sapiens, T47D"}, "OVCAR-5": {"system": "OVCAR-5", "test": "panel of 60 human tumor cell lines, growth inhibition (Ovarian Cancer)", "settings": "Homo sapiens"}, "NCI/ADR-RES": {"system": "NCI/ADR-RES", "test": "panel of 60 human tumor cell lines, growth inhibition (Ovarian Cancer)", "settings": "Homo sapiens"}, "SK-OV-3": {"system": "SK-OV-3", "test": "panel of 60 human tumor cell lines, growth inhibition (Ovarian Cancer)", "settings": "Homo sapiens"}, "DU-145": {"system": "DU-145", "test": "panel of 60 human tumor cell lines, growth inhibition (Prostate Cancer)", "settings": "Homo sapiens"}, "NCI-H23": {"system": "NCI-H23", "test": "panel of 60 human tumor cell lines, growth inhibition (Non-Small Cell Lung Cancer)", "settings": "Homo sapiens"}, "NCI-H522": {"system": "NCI-H522", "test": "panel of 60 human tumor cell lines, growth inhibition (Non-Small Cell Lung Cancer)", "settings": "Homo sapiens"}},
  "data": [
    {"smiles": "C=C1C(=O)O[C@H]2[C@H]1CC/C(COC(=O)NCCN1CCOCC1)=C\\CC[C@@]1(C)O[C@@H]21", "note": "[JVM 57, ((1aR,7aS,10aS,10bS,E)-1a-methyl-8-methylene-9-oxo-1a,2,3,6,7,7a,8,9,10a,10b-decahydrooxireno[2′,3′:9,10]-cyclodeca[1,2-b]furan-5-yl)-methyl(2-morpholinoethyl)carbamate]", "values": [
      {"measurement": "GI50", "setting": "CCRF-CEM", "result": 3.03, "unit": "µM"},
      {"measurement": "GI50", "setting": "CCRF-CEM; 5-dose assay", "result": 3.03, "unit": "µM"},
      {"measurement": "CC50", "setting": "CCRF-CEM; read-out: LC50", "result": "≥ 109", "unit": "µM"},
      {"measurement": "IC (TGI)", "setting": "CCRF-CEM; read-out: TGI", "result": 11.6, "unit": "µM"},
      {"measurement": "GI50", "setting": "SK-MEL-28; SK-MEL-28", "result": 10.5, "unit": "µM"},
      {"measurement": "CC50", "setting": "SK-MEL-28; SK-MEL-28, read-out: LC50", "result": 47.2, "unit": "µM"},
      {"measurement": "IC (TGI)", "setting": "SK-MEL-28; SK-MEL-28, read-out: TGI", "result": 22.2, "unit": "µM"},
      {"measurement": "GI50", "setting": "UACC-62; UACC-62", "result": 11.8, "unit": "µM"},
      {"measurement": "CC50", "setting": "UACC-62; UACC-62, read-out: LC50", "result": 53.2, "unit": "µM"},
      {"measurement": "IC (TGI)", "setting": "UACC-62; UACC-62, read-out: TGI", "result": 25.1, "unit": "µM"},
      {"measurement": "GI50", "setting": "SNB-19; SNB-19", "result": 45.3, "unit": "µM"},
      {"measurement": "CC50", "setting": "SNB-19; SNB-19, read-out: LC50", "result": "> 100", "unit": "µM"},
      {"measurement": "IC (TGI)", "setting": "SNB-19; SNB-19, read-out: TGI", "result": "> 100", "unit": "µM"},
      {"measurement": "GI50", "setting": "SNB-75; SNB-75", "result": 19.5, "unit": "µM"},
      {"measurement": "CC50", "setting": "SNB-75; SNB-75, read-out: LC50", "result": "> 100", "unit": "µM"},
      {"measurement": "IC (TGI)", "setting": "SNB-75; SNB-75, read-out: TGI", "result": "> 100", "unit": "µM"},
      {"measurement": "GI50", "setting": "HCC-2998; HCC 2998", "result": 19.7, "unit": "µM"},
      {"measurement": "CC50", "setting": "HCC-2998; HCC 2998, read-out: LC50", "result": 72.3, "unit": "µM"},
      {"measurement": "IC (TGI)", "setting": "HCC-2998; HCC 2998, read-out: TGI", "result": 37.7, "unit": "µM"},
      {"measurement": "GI50", "setting": "HCT-116", "result": 2.87, "unit": "µM"},
      {"measurement": "GI50", "setting": "HCT-116; 5-dose assay", "result": 2.87, "unit": "µM"},
      {"measurement": "CC50", "setting": "HCT-116; HCT-116, read-out: LC50", "result": 38.9, "unit": "µM"},
      {"measurement": "IC (TGI)", "setting": "HCT-116; HCT-116, read-out: TGI", "result": 10.7, "unit": "µM"},
      {"measurement": "GI50", "setting": "KM12; Homo sapiens, KM12", "result": 26.3, "unit": "µM"},
      {"measurement": "CC50", "setting": "KM12; Homo sapiens, KM12, read-out: LC50", "result": "> 100", "unit": "µM"},
      {"measurement": "TGI", "setting": "KM12; KM12", "result": "7.66E−5"},
      {"measurement": "Percent Growth", "setting": "KM12; KM12, Log10 Concentration −4.0", "result": "−12", "unit": "%"},
      {"measurement": "Percent Growth", "setting": "KM12; KM12, Log10 Concentration −5.0", "result": 95, "unit": "%"},
      {"measurement": "Percent Growth", "setting": "KM12; KM12, Log10 Concentration −6.0", "result": 100, "unit": "%"},
      {"measurement": "Percent Growth", "setting": "KM12; KM12, Log10 Concentration −7.0", "result": 106, "unit": "%"},
      {"measurement": "Percent Growth", "setting": "KM12; KM12, Log10 Concentration −8.0", "result": 102, "unit": "%"},
      {"measurement": "GI50", "setting": "786-0; 786-0", "result": 11.4, "unit": "µM"},
      {"measurement": "CC50", "setting": "786-0; 786-0, read-out: LC50", "result": 59.4, "unit": "µM"},
      {"measurement": "IC (TGI)", "setting": "786-0; 786-0, read-out: TGI", "result": 26, "unit": "µM"},
      {"measurement": "GI50", "setting": "A498; A498", "result": 19.4, "unit": "µM"},
      {"measurement": "CC50", "setting": "A498; A498, read-out: LC50", "result": "> 100", "unit": "µM"},
      {"measurement": "IC (TGI)", "setting": "A498; A498, read-out: TGI", "result": 57, "unit": "µM"},
      {"measurement": "GI50", "setting": "RXF 393", "result": 3, "unit": "µM"},
      {"measurement": "GI50", "setting": "RXF 393; 5-dose assay", "result": 3, "unit": "µM"},
      {"measurement": "CC50", "setting": "RXF 393; RXF 393, read-out: LC50", "result": 41, "unit": "µM"},
      {"measurement": "IC (TGI)", "setting": "RXF 393; RXF 393, read-out: TGI", "result": 11.9, "unit": "µM"},
      {"measurement": "GI50", "setting": "UO-31; UO-31", "result": 10.7, "unit": "µM"},
      {"measurement": "CC50", "setting": "UO-31; UO-31, read-out: LC50", "result": 54.5, "unit": "µM"},
      {"measurement": "IC (TGI)", "setting": "UO-31; UO-31, read-out: TGI", "result": 24.1, "unit": "µM"},
      {"measurement": "GI50", "setting": "T-47D", "result": 6.32, "unit": "µM"},
      {"measurement": "CC50", "setting": "T-47D; read-out: LC50", "result": 71.5, "unit": "µM"},
      {"measurement": "IC (TGI)", "setting": "T-47D; read-out: TGI", "result": 23.2, "unit": "µM"},
      {"measurement": "GI50", "setting": "OVCAR-5; OVCAR-5", "result": 15.7, "unit": "µM"},
      {"measurement": "CC50", "setting": "OVCAR-5; OVCAR-5, read-out: LC50", "result": 78.5, "unit": "µM"},
      {"measurement": "IC (TGI)", "setting": "OVCAR-5; OVCAR-5, read-out: TGI", "result": 35.2, "unit": "µM"},
      {"measurement": "GI50", "setting": "NCI/ADR-RES", "result": 52.3, "unit": "µM"},
      {"measurement": "CC50", "setting": "NCI/ADR-RES; read-out: LC50", "result": "> 100", "unit": "µM"},
      {"measurement": "IC (TGI)", "setting": "NCI/ADR-RES; read-out: TGI", "result": "> 100", "unit": "µM"},
      {"measurement": "GI50", "setting": "SK-OV-3; SK-OV-3", "result": 48.5, "unit": "µM"},
      {"measurement": "CC50", "setting": "SK-OV-3; SK-OV-3, read-out: LC50", "result": "> 100", "unit": "µM"},
      {"measurement": "IC (TGI)", "setting": "SK-OV-3; SK-OV-3, read-out: TGI", "result": "> 100", "unit": "µM"},
      {"measurement": "GI50", "setting": "DU-145; DU-145", "result": 3.74, "unit": "µM"},
      {"measurement": "CC50", "setting": "DU-145; DU-145, read-out: LC50", "result": 37, "unit": "µM"},
      {"measurement": "IC (TGI)", "setting": "DU-145; DU-145, read-out: TGI", "result": 13.3, "unit": "µM"},
      {"measurement": "GI50", "setting": "NCI-H23; NCI-H23", "result": 15.8, "unit": "µM"},
      {"measurement": "CC50", "setting": "NCI-H23; NCI-H23, read-out: LC50", "result": 84.3, "unit": "µM"},
      {"measurement": "IC (TGI)", "setting": "NCI-H23; NCI-H23, read-out: TGI", "result": 36.5, "unit": "µM"},
      {"measurement": "GI50", "setting": "NCI-H522; NCI-H522", "result": 2.13, "unit": "µM"},
      {"measurement": "CC50", "setting": "NCI-H522; NCI-H522, read-out: LC50", "result": 31.8, "unit": "µM"},
      {"measurement": "IC (TGI)", "setting": "NCI-H522; NCI-H522, read-out: TGI", "result": 5.88, "unit": "µM"}
    ]}
  ]
}
